# Laboratory results from patent US9593197B2, “Trigger-responsive chain-shattering polymers” (THE BOARD OF TRUSTEES OF THE UNIVERSITY OF ILLINOIS, priority 2012, dated 2017).
# Experiment: MTT cytotoxicity assay before and after UV treatment
# Details: human, HeLa cells
smiles,measurement,value
"CC[C@@]1(O)C(=O)OCc2c1cc1n(c2=O)Cc2cc3cc(O)ccc3nc2-1 [HCPT, 10-hydroxycamptothecin]",IC50,6.2 to 7.32 µM
